These results are taken from patent US20250064795A1, “METHODS OF TREATING CORONAVIRUS DISEASE AND COMPOUNDS FOR SAME” (Board of Supervisors of Louisiana State University and …, priority 2021, published 2025).

Series [1] relates to SARS-CoV-2 (USA-WA1/2020 Isolate). The series is described as follows: In vitro inhibition of SARS-CoV-2 in Calu-3 cells (immunostaining assay). It counts as cell-based.
The conditions of series [2]: conventional Topotecan therapy; cited from earlier work.
The nature of series [3]: in vitro. Conditions: human.
The conditions of series [4]: cited from earlier work.

Like-named read-outs stand apart in the source and are kept apart here.

Broadly, the IC50 is the concentration that inhibits the measured activity by half. `CCC(CC)COC(=O)[C@H](C)N[P@](=O)(OC[C@H]1O[C@@](C#N)(c2ccc3c(N)ncnn23)[C@H](O)[C@@H]1O)Oc1ccccc1` [Remdesivir]: in series [1] (Severe acute respiratory syndrome coronavirus 2, Calu-3), it took 116 nM to reach half-maximal inhibition (IC50).

As to `CC[C@@]1(O)C(=O)OCc2c1cc1n(c2=O)Cc2cc3c(CN(C)C)c(O)ccc3nc2-1` [Topotecan], the dose-limiting toxicity result in series [2] is “bone marrow suppression”. The CC50 in series [3] is 169 nM. The “inhibition of SARS-CoV-2” value in series [1] (Calu-3 cells, FIG. 1) is listed as “Complete or near complete inhibition”. For the same molecule, the IC50 in series [1] (Severe acute respiratory syndrome coronavirus 2, Calu-3 cells, 24 h pretreatment, MOI 0.005, 48 h after inoculation, FIG. 1, read-out: IC50 of inhibition of SARS-CoV-2) is 35 nM; in series [1] (Severe acute respiratory syndrome coronavirus 2, replicate experiments, Calu-3 cells, FIG. 3 and FIG. 4B, read-out: IC50), 9.36 nM. The plasma elimination half-life in series [4] (in vivo) was 2 to 3 h. Moreover, the “time of peak plasma concentrations” value in series [4] (oral administration) is 1 to 2 h.
